Substitutions are numbered along the chain they refer to.
How the values were obtained:
human PNPO F48A variant = target: T1, human PNPO F48A variant (Homo sapiens, UniProt Q9NVS9, F48A); test: PMP oxidation kinetics, F48A variant; details: 50 mM Tris–HCl pH 7.6, 37°C, 2 μM enzyme
T1 sequence (Q9NVS9 1-261 F48A): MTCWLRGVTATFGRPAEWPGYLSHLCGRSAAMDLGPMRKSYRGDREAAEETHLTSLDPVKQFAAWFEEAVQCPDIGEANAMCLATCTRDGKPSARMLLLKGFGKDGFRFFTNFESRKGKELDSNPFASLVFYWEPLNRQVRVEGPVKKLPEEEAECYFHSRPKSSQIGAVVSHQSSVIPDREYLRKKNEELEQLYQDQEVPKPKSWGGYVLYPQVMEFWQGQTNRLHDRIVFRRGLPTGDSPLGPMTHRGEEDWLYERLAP

human PNPO wild type = target: T2, human PNPO wild type (Homo sapiens, UniProt Q9NVS9)
T2 sequence (Q9NVS9 1-261): T1 sequence (Q9NVS9 1-261 F48A) with A48F

Cc1ncc(COP(=O)(O)O)c(CN)c1O [PMP, pyridoxamine 5′‐phosphate]
PMP oxidation kCAT (human PNPO F48A variant): 0.1785 ± 0.003 s⁻¹ | PMP oxidation kCAT (human PNPO wild type; 50 mM Tris–HCl pH 7.6, 37°C, 2 μM enzyme): 0.135 ± 0.00283 s⁻¹ | KM for PMP relative to KM for PNP (human PNPO wild type; Tris–HCl pH 7.6, 37°C): 25 fold
